# pIC50, pKi: −log10 of the molar value. Where two headings read alike, the source gives them in different places.
# Tests used:
# [1] = biological target: BDZ binding site of the GABAA receptor; experiment: competitive binding assay with [3H]-flunitrazepam; conditions: [3H]-flunitrazepam competition
# ICR mice [2] = experiment: Locomotor activity test; type: in vivo; conditions: 1 hour before 5 minute test
# Experimental: ICR mice of either sex, weighing 14-17 g were used. Animals were housed in groups of four or five and were given food and water ad libitum and maintained on a 11 hour light: 13 hour dark cycle. All of the experimental groups had 12 animals per group. dl-THP was dissolved in double distilled water and administered orally 1 hour before testing at concentrations as detailed below, with a total injection volume of 10 ml/kg. For the control group, double-distilled water was used as the vehicle. All procedures were carried out in a quiet, air-conditioned laboratory between 08:00 and 13:00 at ambient temperature of 20-22° C. At the end of each session any boluses were removed and the box was thoroughly wiped with 70% ethanol. The ZIL-2 apparatus (Beijing Institute of Materia Medica) having dimensions of 60×60×12 cm was used to perform this test. It consists of four circular plastic boxes of 25 cm diameter, each having 6 equally distributed infrared photocells. The locomotor activity was counted automatically during a 5 minute test period. A decrease in the number of transitions reflects a decrease in locomotor activity. The results from the locomotor activity test and the elevated plus-maze test are expressed as mean±standard error of mean (SEM). All data were submitted to analysis of variance (ANOVA). Post hoc comparisons between individual treatments and controls of the locomotor activity test, the hole-board test and the elevated plus-maze test were made using Dunnett's t-test. The level of significance was considered to be p<0.05.
# ICR mice [3] = experiment: Elevated plus-maze test; type: in vivo
# Experimental: ICR mice of either sex, weighing 14-17 g were used. Animals were housed in groups of four or five and were given food and water ad libitum and maintained on a 11 hour light: 13 hour dark cycle. All of the experimental groups had 12 animals per group. dl-THP was dissolved in double distilled water and administered orally 1 hour before testing at concentrations as detailed below, with a total injection volume of 10 ml/kg. For the control group, double-distilled water was used as the vehicle. All procedures were carried out in a quiet, air-conditioned laboratory between 08:00 and 13:00 at ambient temperature of 20-22° C. At the end of each session any boluses were removed and the box was thoroughly wiped with 70% ethanol. The elevated plus-maze is made of wood as a horizontal cross consisting of two open arms (25×5 cm) and two opposite arms (25×5 cm) enclosed by 20 cm high walls. The arms extend from a central platform having dimensions of 5×5 cm. The plus-maze is elevated to a height of 40 cm from the floor. The maze is put inside a box with dimensions of 30×30×50 cm. After the hole-board test, the mice are immediately placed on the central platform of the maze facing a closed arm. The number of arm entries and the time spent into the open and closed arm are counted for 5 minutes (Pellow S et al., “Anxiolytic and anxiogenic drug effects on exploratory activity in an elevated plus-maze: a novel test of anxiety in the rat.”, Pharmacol Biochem Behav. March 1986;24(3):525-9; PMID: 2871560). Arm entry was defined as all four feet in the arm. The total number of arm entries provided a measure of general activity. […] The results from the locomotor activity test and the elevated plus-maze test are expressed as mean±standard error of mean (SEM). All data were submitted to analysis of variance (ANOVA). Post hoc comparisons between individual treatments and controls of the locomotor activity test, the hole-board test and the elevated plus-maze test were made using Dunnett's t-test. The level of significance was considered to be p<0.05.
# ICR mice [4] = experiment: Hole-board test; type: in vivo; conditions: 5 minute test
# Experimental: ICR mice of either sex, weighing 14-17 g were used. Animals were housed in groups of four or five and were given food and water ad libitum and maintained on a 11 hour light: 13 hour dark cycle. All of the experimental groups had 12 animals per group.
# dl-THP was dissolved in double distilled water and administered orally 1 hour before testing at concentrations as detailed below, with a total injection volume of 10 ml/kg. For the control group, double-distilled water was used as the vehicle.
# All procedures were carried out in a quiet, air-conditioned laboratory between 08:00 and 13:00 at ambient temperature of 20-22° C. At the end of each session any boluses were removed and the box was thoroughly wiped with 70% ethanol.
# The hole-board apparatus is a walled wood arena of 60×60×30 cm, with four equidistant 3 cm diameter holes spaced on the floor. The mice are placed on the center of the arena and the number of head-dips on the hole, the time spent head-dipping, the number of rearings and the time spent rearing are counted during a 5 minute test period (File SE et al., “The effects of triazolobenzodiazepines in two animal tests of anxiety and in the holeboard.”, Br J Pharmacol. November 1985;86(3):729-35; PMID: 2866006). After each trial, the floor of the apparatus was wiped and dried thoroughly with tissue to remove traces of the previous path.
# The results from the locomotor activity test and the elevated plus-maze test are expressed as mean±standard error of mean (SEM). All data were submitted to analysis of variance (ANOVA). Post hoc comparisons between individual treatments and controls of the locomotor activity test, the hole-board test and the elevated plus-maze test were made using Dunnett's t-test. The level of significance was considered to be p<0.05.
# ICR mice [5] = experiment: Horizontal-wire test; type: in vivo; conditions: up to 30 mg/kg orally
# Experimental: ICR mice of either sex, weighing 14-17 g were used. Animals were housed in groups of four or five and were given food and water ad libitum and maintained on a 11 hour light: 13 hour dark cycle. All of the experimental groups had 12 animals per group. dl-THP was dissolved in double distilled water and administered orally 1 hour before testing at concentrations as detailed below, with a total injection volume of 10 ml/kg. For the control group, double-distilled water was used as the vehicle. The mice are lifted by the tail and allowed to grasp a horizontally strung wire (1 mm diameter, 15 cm long and placed 20 cm above the table) with their forepaws and released (Bonetti E P et al., Psychophannacology (Berl). 1982;78(1):8-18; PMID: 6292984).
# α-1 adrenoceptors = conditions: rat cerebral cortex; previously performed studies; cited from earlier work
# α-2 adrenoceptors = conditions: rat cerebral cortex; previously performed studies; cited from earlier work
# mice = conditions: cited from earlier work
# rats = conditions: rat, in vivo, po; cited from earlier work
# [6] = 1, 10 and 30 mg/kg orally, dose-dependent, 5 minute test
structure (smiles),measurement,setting,value
"COc1cc2c(cc1OC)C1Cc3ccc(OC)c(OC)c3CN1CC2 (racemic) [dl-THP, 5,8,18,13a-tetrahydro-2,3,9,10-tetramethoxy-6H-dibenzo [a,q] quinolizine]",pIC50,"[1]; read-out: IC50, inhibition of binding of [3H]-flunitrazepam to the BDZ binding site of the GABAA receptor",3.08
same,pKi,"[1]; read-out: Ki, inhibition of binding of [3H]-flunitrazepam to the BDZ binding site of the GABAA receptor",3.29
same,reduction of locomotor activity,ICR mice [2]; 1 mg/kg orally,33%
same,reduction of locomotor activity,ICR mice [2]; 10 mg/kg orally,33%
same,reduction of locomotor activity,ICR mice [2]; 30 mg/kg orally,36%
same,open arm parameters versus controls (Dunnett's test),ICR mice [3]; 1 mg/kg orally,significantly differed from controls
same,total number of arm entries,"ICR mice [3]; 1, 10 and 30 mg/kg orally, 5 minute test",did not significantly alter
same,percentage of open arm entries,ICR mice [3]; [6],significantly elevated
same,percentage of time spent on the open arms,ICR mice [3]; [6],significantly elevated
same,number of head-dips (Dunnett's test),ICR mice [4]; 10 mg/kg orally,significantly reduced
same,number of head-dips,ICR mice [4]; 30 mg/kg orally,significantly reduced
same,time spent head-dipping,ICR mice [4]; 30 mg/kg orally,significantly reduced
same,"muscle-relaxant effect, grasping of horizontal wire",ICR mice [5],without effect
same,pKi,α-1 adrenoceptors,5.33
same,pKi,α-2 adrenoceptors,5.30
same,LD50,"mice; mice, sub-cutaneous administration",670 mg/kg
same,LD50,"mice; mouse, in vivo, po",1160 mg/kg
same,LD50,rats,930 mg/kg
